In patent US10710978B2, “STK4 inhibitors for treatment of hematologic malignancies” (Dana-Farber Cancer Institute, Inc., priority 2015, dated 2020):
Read-outs that look alike come from different tables or passages of the source.

Tests used:
Experiment in all cases: KiNativ assay
Assay type in all cases: binding
Settings in all cases: H929 live cell
AKT1 = AKT1 (Homo sapiens (Human), UniProt P31749)
Procedure: (§1) Biochemical IC50s of the compounds of the present disclosure against various kinases were measured in a KiNativ assay. Compounds were screened in duplicate at 10 μM in H929 live cell. IC50 was measured via Mass spectroscopy (MS).

CaMKK2 = CaMKK2 (Homo sapiens (Human), UniProt Q96RR4)
Procedure: as §1

GSK3B = GSK3B (Homo sapiens (Human), UniProt P49841)
Procedure: as §1

PI4KB = PI4KB (Homo sapiens (Human), UniProt Q9UBF8)
Procedure: as §1

NEK1 = NEK1 (Homo sapiens (Human), UniProt Q96PY6)
Procedure: as §1

IKKa = IKKa (Homo sapiens (Human), UniProt O15111)
Procedure: as §1

JAK1 domain2 = JAK1 domain2 (Homo sapiens (Human), UniProt P23458)
Procedure: as §1

KSR1, KSR2 = test system: KSR1, KSR2
Procedure: as §1

PIK3CB = PIK3CB (Homo sapiens (Human), UniProt P42338)
Procedure: as §1

eEF2K = eEF2K (Homo sapiens (Human), UniProt O00418)
Procedure: as §1

PIK3C3 = PIK3C3 (Homo sapiens (Human), UniProt Q8NEB9)
Procedure: as §1

FER = FER (Homo sapiens (Human), UniProt P16591)
Procedure: as §1

MAP3K4 = MAP3K4 (Homo sapiens (Human), UniProt Q9Y6R4)
Procedure: as §1

CK1g2 = CK1g2 (Homo sapiens (Human), UniProt P78368)
Procedure: as §1

IRE1 = IRE1 (Homo sapiens (Human), UniProt O75460)
Procedure: as §1

MST2 = MST2 (Homo sapiens (Human), UniProt Q13188)
Procedure: as §1

NEK8 = NEK8 (Homo sapiens (Human), UniProt Q86SG6)
Procedure: as §1

NEK7 = NEK7 (Homo sapiens (Human), UniProt Q8TDX7)
Procedure: as §1

PKD3 = PKD3 (Homo sapiens (Human), UniProt O94806)
Procedure: as §1

HPK1 = HPK1 (Homo sapiens (Human), UniProt Q92918)
Procedure: as §1

CaMK2g = CaMK2g (Homo sapiens (Human), UniProt Q13555)
Procedure: as §1

p70S6Kb = p70S6Kb (Homo sapiens (Human), UniProt Q9UBS0)
Procedure: as §1

OSR1 = OSR1 (Homo sapiens (Human), UniProt O95747)
Procedure: as §1

JAK3 domain2 = JAK3 domain2 (Homo sapiens (Human), UniProt P52333)
Procedure: as §1

PKCz = PKCz (Homo sapiens (Human), UniProt Q05513)
Procedure: as §1

PLK1 = PLK1 (Homo sapiens (Human), UniProt P53350)
Procedure: as §1

MAP3K5 = MAP3K5 (Homo sapiens (Human), UniProt Q99683)
Procedure: as §1

MARK3 = MARK3 (Homo sapiens (Human), UniProt P27448)
Procedure: as §1

TYK2 domain2 = TYK2 domain2 (Homo sapiens (Human), UniProt P29597)
Procedure: as §1

AMPKa1, AMPKa2 = test system: AMPKa1, AMPKa2
Procedure: as §1

AurB = AurB (Homo sapiens (Human), UniProt Q96GD4)
Procedure: as §1

DGKH = DGKH (Homo sapiens (Human), UniProt Q86XP1)
Procedure: as §1

STLK3 = STLK3 (Homo sapiens (Human), UniProt Q9UEW8)
Procedure: as §1

[1] = range class, read-out: % inhibition

CaMK2g, sequence (Q13555 whole entry): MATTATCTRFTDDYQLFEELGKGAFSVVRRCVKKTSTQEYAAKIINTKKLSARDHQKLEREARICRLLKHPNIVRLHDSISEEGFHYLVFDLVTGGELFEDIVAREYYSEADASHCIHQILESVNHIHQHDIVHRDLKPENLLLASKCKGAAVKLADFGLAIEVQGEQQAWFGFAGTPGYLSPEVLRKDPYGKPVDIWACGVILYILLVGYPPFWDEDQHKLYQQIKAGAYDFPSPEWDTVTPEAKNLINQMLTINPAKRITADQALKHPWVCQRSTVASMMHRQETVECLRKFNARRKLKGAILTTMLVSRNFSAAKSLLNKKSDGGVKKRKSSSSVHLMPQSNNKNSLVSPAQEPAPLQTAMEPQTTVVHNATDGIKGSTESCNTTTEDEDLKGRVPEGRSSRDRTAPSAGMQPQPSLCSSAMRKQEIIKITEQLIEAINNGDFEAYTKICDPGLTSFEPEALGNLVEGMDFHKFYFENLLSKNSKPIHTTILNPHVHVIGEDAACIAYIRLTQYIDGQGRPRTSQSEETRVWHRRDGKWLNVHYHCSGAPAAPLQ
CaMKK2, sequence (Q96RR4 whole entry): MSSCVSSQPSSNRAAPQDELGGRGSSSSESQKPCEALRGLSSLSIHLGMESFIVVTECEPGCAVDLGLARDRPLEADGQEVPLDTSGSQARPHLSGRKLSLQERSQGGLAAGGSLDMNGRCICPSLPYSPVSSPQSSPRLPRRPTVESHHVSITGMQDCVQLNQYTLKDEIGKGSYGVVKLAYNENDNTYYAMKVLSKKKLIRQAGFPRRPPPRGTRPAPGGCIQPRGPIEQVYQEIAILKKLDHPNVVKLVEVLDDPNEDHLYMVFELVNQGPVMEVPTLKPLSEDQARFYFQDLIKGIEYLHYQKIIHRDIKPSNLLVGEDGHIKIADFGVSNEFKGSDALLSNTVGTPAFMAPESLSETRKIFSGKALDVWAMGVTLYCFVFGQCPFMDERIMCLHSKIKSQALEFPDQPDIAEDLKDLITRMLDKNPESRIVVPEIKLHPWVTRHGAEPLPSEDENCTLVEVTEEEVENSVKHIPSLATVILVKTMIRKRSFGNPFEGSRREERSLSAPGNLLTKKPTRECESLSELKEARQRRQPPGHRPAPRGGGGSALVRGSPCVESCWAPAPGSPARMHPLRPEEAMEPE
JAK1 domain2, sequence (P23458 whole entry, the tested form may be a part): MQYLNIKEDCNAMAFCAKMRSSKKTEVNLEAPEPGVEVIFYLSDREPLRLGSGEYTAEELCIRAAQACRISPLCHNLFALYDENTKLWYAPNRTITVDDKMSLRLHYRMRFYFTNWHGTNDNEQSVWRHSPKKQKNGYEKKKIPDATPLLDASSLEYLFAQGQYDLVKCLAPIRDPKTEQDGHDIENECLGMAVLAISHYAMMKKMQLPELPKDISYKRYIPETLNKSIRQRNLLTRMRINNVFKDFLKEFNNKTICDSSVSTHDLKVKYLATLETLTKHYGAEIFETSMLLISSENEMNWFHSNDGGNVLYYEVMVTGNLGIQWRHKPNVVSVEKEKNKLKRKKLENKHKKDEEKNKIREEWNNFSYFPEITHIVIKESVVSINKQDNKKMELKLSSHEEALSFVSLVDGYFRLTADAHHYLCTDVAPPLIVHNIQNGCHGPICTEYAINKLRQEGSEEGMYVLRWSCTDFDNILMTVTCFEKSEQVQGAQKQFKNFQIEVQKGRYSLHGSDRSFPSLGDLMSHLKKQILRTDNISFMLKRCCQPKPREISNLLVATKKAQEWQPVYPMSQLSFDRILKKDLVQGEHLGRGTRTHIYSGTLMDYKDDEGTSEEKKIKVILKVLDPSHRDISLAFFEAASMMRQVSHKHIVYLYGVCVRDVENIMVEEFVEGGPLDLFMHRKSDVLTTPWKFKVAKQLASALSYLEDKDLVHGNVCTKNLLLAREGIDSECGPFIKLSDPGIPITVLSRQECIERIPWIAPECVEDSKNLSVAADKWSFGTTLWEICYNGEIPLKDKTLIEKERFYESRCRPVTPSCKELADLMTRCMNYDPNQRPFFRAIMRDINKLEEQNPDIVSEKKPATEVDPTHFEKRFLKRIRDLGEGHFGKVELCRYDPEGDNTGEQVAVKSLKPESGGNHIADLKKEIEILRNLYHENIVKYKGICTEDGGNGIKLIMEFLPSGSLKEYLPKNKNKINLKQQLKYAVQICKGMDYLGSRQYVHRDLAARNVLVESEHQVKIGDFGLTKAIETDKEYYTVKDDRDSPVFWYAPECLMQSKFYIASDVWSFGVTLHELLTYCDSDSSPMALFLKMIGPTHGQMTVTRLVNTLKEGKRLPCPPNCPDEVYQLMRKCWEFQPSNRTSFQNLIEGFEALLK
GSK3B, sequence (P49841 whole entry): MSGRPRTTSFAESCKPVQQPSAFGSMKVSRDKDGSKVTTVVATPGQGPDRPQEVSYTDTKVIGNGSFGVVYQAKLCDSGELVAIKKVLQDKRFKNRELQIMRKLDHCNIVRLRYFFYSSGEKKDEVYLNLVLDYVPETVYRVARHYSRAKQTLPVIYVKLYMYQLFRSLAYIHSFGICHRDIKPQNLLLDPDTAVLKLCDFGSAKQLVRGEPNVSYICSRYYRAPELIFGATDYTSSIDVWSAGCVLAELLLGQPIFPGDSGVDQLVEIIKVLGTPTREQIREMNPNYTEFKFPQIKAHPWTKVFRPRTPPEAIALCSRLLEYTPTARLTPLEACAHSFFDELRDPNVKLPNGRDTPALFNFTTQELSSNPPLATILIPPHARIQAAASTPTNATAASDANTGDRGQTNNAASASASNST
IRE1, sequence (O75460 19-977): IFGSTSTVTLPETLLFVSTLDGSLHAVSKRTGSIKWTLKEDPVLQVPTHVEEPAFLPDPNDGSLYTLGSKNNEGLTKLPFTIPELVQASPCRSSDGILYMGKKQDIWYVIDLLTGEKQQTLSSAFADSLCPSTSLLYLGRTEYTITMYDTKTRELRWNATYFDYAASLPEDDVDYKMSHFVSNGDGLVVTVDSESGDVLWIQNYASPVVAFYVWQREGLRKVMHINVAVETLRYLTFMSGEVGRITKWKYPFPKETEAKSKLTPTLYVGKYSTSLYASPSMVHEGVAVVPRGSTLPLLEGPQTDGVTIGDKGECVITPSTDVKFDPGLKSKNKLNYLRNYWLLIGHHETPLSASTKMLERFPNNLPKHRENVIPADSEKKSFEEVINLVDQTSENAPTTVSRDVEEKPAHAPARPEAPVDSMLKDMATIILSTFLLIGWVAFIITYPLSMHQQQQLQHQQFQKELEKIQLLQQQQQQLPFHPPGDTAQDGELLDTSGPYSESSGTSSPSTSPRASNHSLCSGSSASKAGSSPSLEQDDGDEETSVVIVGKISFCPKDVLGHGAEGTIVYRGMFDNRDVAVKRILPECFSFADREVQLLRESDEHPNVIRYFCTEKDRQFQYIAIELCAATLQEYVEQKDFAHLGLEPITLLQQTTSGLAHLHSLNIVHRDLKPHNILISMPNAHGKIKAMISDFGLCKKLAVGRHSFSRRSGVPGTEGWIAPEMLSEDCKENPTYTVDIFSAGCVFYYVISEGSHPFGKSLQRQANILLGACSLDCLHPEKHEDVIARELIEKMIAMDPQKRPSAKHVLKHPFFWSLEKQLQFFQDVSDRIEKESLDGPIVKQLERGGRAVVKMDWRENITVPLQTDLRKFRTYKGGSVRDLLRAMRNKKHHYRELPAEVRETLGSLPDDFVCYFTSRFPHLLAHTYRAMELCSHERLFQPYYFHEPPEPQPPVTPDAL
MST2, sequence (Q13188 whole entry): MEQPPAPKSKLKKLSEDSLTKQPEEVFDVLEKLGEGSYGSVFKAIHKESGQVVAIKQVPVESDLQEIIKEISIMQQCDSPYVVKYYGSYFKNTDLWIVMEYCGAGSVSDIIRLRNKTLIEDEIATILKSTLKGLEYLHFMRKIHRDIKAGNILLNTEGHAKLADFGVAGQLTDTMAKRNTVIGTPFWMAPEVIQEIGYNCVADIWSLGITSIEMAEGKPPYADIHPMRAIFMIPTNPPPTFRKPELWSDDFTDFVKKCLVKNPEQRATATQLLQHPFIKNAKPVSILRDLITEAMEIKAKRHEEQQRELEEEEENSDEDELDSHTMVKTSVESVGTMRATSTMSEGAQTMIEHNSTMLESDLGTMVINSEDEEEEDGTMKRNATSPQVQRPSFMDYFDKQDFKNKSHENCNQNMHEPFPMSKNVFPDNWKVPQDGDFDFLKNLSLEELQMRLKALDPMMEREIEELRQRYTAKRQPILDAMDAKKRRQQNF
p70S6Kb, sequence (Q9UBS0 whole entry): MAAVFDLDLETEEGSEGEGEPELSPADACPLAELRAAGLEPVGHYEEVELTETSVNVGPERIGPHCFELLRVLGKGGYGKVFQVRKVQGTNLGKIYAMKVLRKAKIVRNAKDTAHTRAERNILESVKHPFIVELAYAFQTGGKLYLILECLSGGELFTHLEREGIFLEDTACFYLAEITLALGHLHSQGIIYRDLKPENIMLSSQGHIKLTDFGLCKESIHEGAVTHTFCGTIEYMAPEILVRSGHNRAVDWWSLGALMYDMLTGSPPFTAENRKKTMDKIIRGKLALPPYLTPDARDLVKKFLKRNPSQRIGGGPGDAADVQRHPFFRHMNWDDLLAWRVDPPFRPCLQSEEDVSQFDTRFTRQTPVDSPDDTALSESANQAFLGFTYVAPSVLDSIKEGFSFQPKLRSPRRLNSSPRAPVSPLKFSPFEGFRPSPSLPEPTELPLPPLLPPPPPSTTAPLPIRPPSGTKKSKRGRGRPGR
NEK7, sequence (Q8TDX7 whole entry): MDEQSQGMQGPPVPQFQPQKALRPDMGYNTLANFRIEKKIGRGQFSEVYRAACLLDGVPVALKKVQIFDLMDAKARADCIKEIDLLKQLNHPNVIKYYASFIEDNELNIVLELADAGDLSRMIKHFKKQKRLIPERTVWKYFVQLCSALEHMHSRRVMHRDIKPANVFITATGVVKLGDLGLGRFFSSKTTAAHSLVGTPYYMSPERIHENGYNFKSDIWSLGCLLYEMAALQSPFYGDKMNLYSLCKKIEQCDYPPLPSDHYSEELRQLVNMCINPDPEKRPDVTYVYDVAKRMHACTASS

## CN(C1CC1)S(=O)(=O)c1ccc(-c2cnc(N)c(-c3ccc4c(c3)CCNC4=O)c2)c(F)c1 [Compound I-28, 4-(6-amino-5-(1-oxo-1,2,3,4-tetrahydroisoquinolin-6-yl)pyridin-3-yl)-N-cyclopropyl-3-fluoro-N-methylbenzenesulfonamide]
AKT1; read-out: % inhibition (range)
  inhibition at 10 µM: 0%
AKT1; read-out: inhibition (10 μM)
  inhibition at 10 µM: 11.1%
CaMKK2; read-out: % inhibition (range)
  inhibition at 10 µM: 50 to 75%
CaMKK2; read-out: inhibition (10 μM)
  inhibition at 10 µM: 57%
GSK3B; read-out: % inhibition (range)
  inhibition at 10 µM: > 90%
GSK3B; read-out: inhibition (10 μM)
  inhibition at 10 µM: 96.4%
PI4KB; read-out: % inhibition (range)
  inhibition at 10 µM: 0%
PI4KB; read-out: inhibition (10 μM)
  inhibition at 10 µM: 16.7%
NEK1; read-out: % inhibition (range)
  inhibition at 10 µM: 0%
NEK1; read-out: inhibition (10 μM)
  inhibition at 10 µM: -14.1%
IKKa; read-out: % inhibition (range)
  inhibition at 10 µM: 0%
IKKa; read-out: inhibition (10 μM)
  inhibition at 10 µM: 6.4%
JAK1 domain2; read-out: % inhibition (range)
  inhibition at 10 µM: 0%
JAK1 domain2; read-out: inhibition (10 μM)
  inhibition at 10 µM: -33.7%
KSR1, KSR2; 10 μM
  % inhibition (range): 0.0%
KSR1, KSR2
  inhibition (10 μM): −14.5%
PIK3CB; read-out: % inhibition (range)
  inhibition at 10 µM: 0%
PIK3CB; read-out: inhibition (10 μM)
  inhibition at 10 µM: 1.9%
eEF2K; read-out: % inhibition (range)
  inhibition at 10 µM: 0%
eEF2K; read-out: inhibition (10 μM)
  inhibition at 10 µM: -15.1%
PIK3C3; read-out: % inhibition (range)
  inhibition at 10 µM: > 100%
PIK3C3; read-out: inhibition (10 μM)
  inhibition at 10 µM: -107%
FER; read-out: % inhibition (range)
  inhibition at 10 µM: 0%
FER; read-out: inhibition (10 μM)
  inhibition at 10 µM: -3.9%
MAP3K4; read-out: % inhibition (range)
  inhibition at 10 µM: 0%
MAP3K4; read-out: inhibition (10 μM)
  inhibition at 10 µM: -8.8%
CK1g2; read-out: % inhibition (range)
  inhibition at 10 µM: > 90%
CK1g2; read-out: inhibition (10 μM)
  inhibition at 10 µM: > 90%
IRE1; read-out: % inhibition (range)
  inhibition at 10 µM: 0%
IRE1; read-out: inhibition (10 μM)
  inhibition at 10 µM: -34.1%
MST2; read-out: % inhibition (range)
  inhibition at 10 µM: 75 to 90%
MST2; read-out: inhibition (10 μM)
  inhibition at 10 µM: 89.3%
NEK8; read-out: % inhibition (range)
  inhibition at 10 µM: 0%
NEK8; read-out: inhibition (10 μM)
  inhibition at 10 µM: -3.4%
NEK7; read-out: % inhibition (range)
  inhibition at 10 µM: 0%
NEK7; read-out: inhibition (10 μM)
  inhibition at 10 µM: 16%
PKD3; read-out: % inhibition (range)
  inhibition at 10 µM: 35 to 50%
PKD3; read-out: inhibition (10 μM)
  inhibition at 10 µM: 36.6%
HPK1; read-out: % inhibition (range)
  inhibition at 10 µM: > 90%
HPK1; read-out: inhibition (10 μM)
  inhibition at 10 µM: 90.8%
CaMK2g; read-out: % inhibition (range)
  inhibition at 10 µM: 0%
CaMK2g; read-out: inhibition (10 μM)
  inhibition at 10 µM: -13%
p70S6Kb; read-out: % inhibition (range)
  inhibition at 10 µM: 0%
p70S6Kb; read-out: inhibition (10 μM)
  inhibition at 10 µM: -14.4%
OSR1; read-out: % inhibition (range)
  inhibition at 10 µM: 0%
OSR1; read-out: inhibition (10 μM)
  inhibition at 10 µM: 22.8%
JAK3 domain2; read-out: % inhibition (range)
  inhibition at 10 µM: 0%
JAK3 domain2; read-out: inhibition (10 μM)
  inhibition at 10 µM: 15.2%
PKCz; read-out: % inhibition (range)
  inhibition at 10 µM: 0%
PKCz; read-out: inhibition (10 μM)
  inhibition at 10 µM: 6.2%
PLK1; read-out: % inhibition (range)
  inhibition at 10 µM: 0%
PLK1; read-out: inhibition (10 μM)
  inhibition at 10 µM: 15.2%
MAP3K5; read-out: % inhibition (range)
  inhibition at 10 µM: 0%
MAP3K5; read-out: inhibition (10 μM)
  inhibition at 10 µM: -6.2%
MARK3; read-out: % inhibition (range)
  inhibition at 10 µM: 0%
MARK3; read-out: inhibition (10 μM)
  inhibition at 10 µM: 14.5%
TYK2 domain2; read-out: % inhibition (range)
  inhibition at 10 µM: 0%
TYK2 domain2; read-out: inhibition (10 μM)
  inhibition at 10 µM: 3.8%
AMPKa1, AMPKa2; 10 μM
  % inhibition (range): 0.0%
AMPKa1, AMPKa2
  inhibition (10 μM): −1.6%
AurB; read-out: % inhibition (range)
  inhibition at 10 µM: 0%
AurB; read-out: inhibition (10 μM)
  inhibition at 10 µM: 32.7%
DGKH; read-out: % inhibition (range)
  inhibition at 10 µM: 0%
DGKH; read-out: inhibition (10 μM)
  inhibition at 10 µM: 10.9%
STLK3; read-out: % inhibition (range)
  inhibition at 10 µM: 0%
STLK3; read-out: inhibition (10 μM)
  inhibition at 10 µM: 13.5%

## COc1cc(NS(=O)(=O)C2CC2)ccc1-c1cnc(N)c(-c2ccc3c(c2)CCNC3=O)c1 [Compound I-50, N-(4-(6-amino-5-(1-oxo-1,2,3,4-tetrahydroisoquinolin-6-yl)pyridin-3-yl)-3-methoxyphenyl) cyclopropanesulfonamide]
AKT1; [1]
  inhibition at 10 µM: 0%
AKT1; read-out: inhibition (10 μM)
  inhibition at 10 µM: 2.1%
CaMKK2; [1]
  inhibition at 10 µM: 75 to 90%
CaMKK2; read-out: inhibition (10 μM)
  inhibition at 10 µM: 88.3%
GSK3B; [1]
  inhibition at 10 µM: 75 to 90%
GSK3B; read-out: inhibition (10 μM)
  inhibition at 10 µM: 81.1%
PI4KB; [1]
  inhibition at 10 µM: 0%
PI4KB; read-out: inhibition (10 μM)
  inhibition at 10 µM: 0%
NEK1; [1]
  inhibition at 10 µM: 0%
NEK1; read-out: inhibition (10 μM)
  inhibition at 10 µM: 16.8%
IKKa; [1]
  inhibition at 10 µM: 0%
IKKa; read-out: inhibition (10 μM)
  inhibition at 10 µM: -1.9%
JAK1 domain2; [1]
  inhibition at 10 µM: 0%
JAK1 domain2; read-out: inhibition (10 μM)
  inhibition at 10 µM: -23.3%
KSR1, KSR2; 10 μM, range class
  % inhibition: 0.0%
KSR1, KSR2
  inhibition (10 μM): −18.4%
PIK3CB; [1]
  inhibition at 10 µM: 0%
PIK3CB; read-out: inhibition (10 μM)
  inhibition at 10 µM: 27.7%
eEF2K; [1]
  inhibition at 10 µM: 0%
eEF2K; read-out: inhibition (10 μM)
  inhibition at 10 µM: -1%
PIK3C3; [1]
  inhibition at 10 µM: 0%
PIK3C3; read-out: inhibition (10 μM)
  inhibition at 10 µM: -32.5%
FER; [1]
  inhibition at 10 µM: 0%
FER; read-out: inhibition (10 μM)
  inhibition at 10 µM: 16.3%
MAP3K4; [1]
  inhibition at 10 µM: 0%
MAP3K4; read-out: inhibition (10 μM)
  inhibition at 10 µM: 9.5%
CK1g2; [1]
  inhibition at 10 µM: 75 to 90%
CK1g2; read-out: inhibition (10 μM)
  inhibition at 10 µM: 79.9%
IRE1; [1]
  inhibition at 10 µM: 0%
IRE1; read-out: inhibition (10 μM)
  inhibition at 10 µM: -8.7%
MST2; [1]
  inhibition at 10 µM: > 90%
MST2; read-out: inhibition (10 μM)
  inhibition at 10 µM: 97.5%
NEK8; [1]
  inhibition at 10 µM: 0%
NEK8; read-out: inhibition (10 μM)
  inhibition at 10 µM: -8.1%
NEK7; [1]
  inhibition at 10 µM: 0%
NEK7; read-out: inhibition (10 μM)
  inhibition at 10 µM: -18.9%
PKD3; [1]
  inhibition at 10 µM: 50 to 75%
PKD3; read-out: inhibition (10 μM)
  inhibition at 10 µM: 69.7%
HPK1; [1]
  inhibition at 10 µM: > 90%
HPK1; read-out: inhibition (10 μM)
  inhibition at 10 µM: 90.4%
CaMK2g; [1]
  inhibition at 10 µM: 0%
CaMK2g; read-out: inhibition (10 μM)
  inhibition at 10 µM: 15.6%
p70S6Kb; [1]
  inhibition at 10 µM: 0%
p70S6Kb; read-out: inhibition (10 μM)
  inhibition at 10 µM: 14%
OSR1; [1]
  inhibition at 10 µM: 0%
OSR1; read-out: inhibition (10 μM)
  inhibition at 10 µM: 16.6%
JAK3 domain2; [1]
  inhibition at 10 µM: 0%
JAK3 domain2; read-out: inhibition (10 μM)
  inhibition at 10 µM: -20.2%
PKCz; [1]
  inhibition at 10 µM: 0%
PKCz; read-out: inhibition (10 μM)
  inhibition at 10 µM: -1.7%
PLK1; [1]
  inhibition at 10 µM: 0%
PLK1; read-out: inhibition (10 μM)
  inhibition at 10 µM: -11.1%
MAP3K5; [1]
  inhibition at 10 µM: 0%
MAP3K5; read-out: inhibition (10 μM)
  inhibition at 10 µM: 27.5%
MARK3; [1]
  inhibition at 10 µM: 0%
MARK3; read-out: inhibition (10 μM)
  inhibition at 10 µM: -17.3%
TYK2 domain2; [1]
  inhibition at 10 µM: 0%
TYK2 domain2; read-out: inhibition (10 μM)
  inhibition at 10 µM: -21%
AMPKa1, AMPKa2; 10 μM, range class
  % inhibition: 0.0%
AMPKa1, AMPKa2
  inhibition (10 μM): −8.2%
AurB; [1]
  inhibition at 10 µM: 0%
AurB; read-out: inhibition (10 μM)
  inhibition at 10 µM: 7.7%
DGKH; [1]
  inhibition at 10 µM: 0%
DGKH; read-out: inhibition (10 μM)
  inhibition at 10 µM: 6.3%
STLK3; [1]
  inhibition at 10 µM: 0%
STLK3; read-out: inhibition (10 μM)
  inhibition at 10 µM: -12.3%
